The values that follow come from publication PMC8145938, “Triphenilphosphonium Analogs of Chloramphenicol as Dual-Acting Antimicrobial and Antiproliferating Agents” (Antibiotics, 2021).

SMILES strings stand for the structures.

One assay deals with HEK293T. The assay can be described thus: MTT assay growth inhibition. To be noted: Homo sapiens, HEK-293T, 72 h, read-out: 50% growth inhibition concentration (GI50). Format: cell-based. As for the experimental part: (§1) The cytotoxicity of the tested substances was tested using the MTT (3-(4,5-dimethylthiazol-2-yl)-2,5-diphenyltetrazolium bromide) assay, with some modifications, and 2500 cells per well for the MCF7, HEK293T, and A549 cell lines or 4000 cells per well for the VA-13 cell line were plated in 135 µL of DMEM-F12 media (Gibco, Waltham, MA, USA) in a 96-well plate and incubated in the 5% CO2 incubator for first 16 h, without treatment. Then, 15 µL of media-DMSO solutions of the tested substances was added to the cells (the final DMSO concentrations in the media were 1% or less) and treated cells for 72 h with 25 nM–50 µM (eight dilutions) of our substances (triplicate each), and serial DMSO dilutions and doxorubicin were used as controls. The MTT reagent (Paneco LLC, Moscow, Russia) was then added to cells to a final concentration of 0.5 g/L (10× stock solution in PBS was used) and incubated for 2.5 h at 37 °C in the incubator under an atmosphere of 5% CO2. The MTT solution was then discarded, and 140 µL of DMSO (PharmaMed LLC, Krasnodarsky Krai, Russia) was added. The plates were swayed on a shaker (60 rpm) to dissolve the formazan. The absorbance was measured using a microplate reader (VICTOR X5 Light Plate Reader, PerkinElmer, Waltham, MA, USA) at a wavelength of 565 nm (in order to measure formazan concentration). The results were used to construct a dose-response graph and to estimate the CC50 value.

The subject of another assay is MCF7. Description: MTT assay growth inhibition. To be noted: Homo sapiens, 72 h, read-out: 50% growth inhibition concentration (GI50). The class given is cell-based. The method, then:
as §1

Another assay deals with VA13. The assay can be described thus: MTT assay growth inhibition. The class given is cell-based. To be noted: VA-13, 72 h, read-out: 50% growth inhibition concentration (GI50). The method, then:
as §1

Assay [1] has as its system Escherichia coli C600rif/pIP162-1. The assay can be described thus: MIC determination, CHL resistant E. coli strains. The class given is cell-based. The source says:
(§2) Standard laboratory strains of Bacillus subtilis subs. subtilis Cohn 1872, stains BR151, and 168, Staphylococcus aureus subsp. aureus Rosenbach 1884 strains JCM 2151 and entry MC#144 (from the Microorganisms Collection of the Moscow State University), Listeria monocytogenes Pirie 1940, Mycobacterium smegmatis Lehmann and Neumann 1899 (MC#377), and Escherichia coli Castellani and Chalmers 1919, strain JW5503 (with the deletion of tolC gene), which are resistant to the chloramphenicol strains, J53rif, C600rif/pIB55-1, C600rif/pIP162-1, and C600recA naI, were used.
(§3) The MICs for CAM-Cn-TPP and Cn-TPP were determined by Mueller-Hinton broth microdilution, as recommended by CLSI in the Methods for Dilution Antimicrobial Susceptibility Tests for Bacteria that Grow Aerobically, Approved Standard, 9th ed., CLSI document M07-A9, using in-house-prepared panels. The compounds were diluted in a 96-well microtiter plate to final concentrations ranging from 0.5 to 360 μM in a 250-µL aliquot of the bacterial suspension, followed by incubation at 37 °C or 30 °C for 18 h. […] The bacterial growth was observed visually alongside OD measurements. The experiments were carried out in triplicate.

For the next assay, the system named is Escherichia coli J53rif. Description: MIC determination, CHL resistant E. coli strains. The class given is cell-based.
Text: as §2, §3

Assay [2] deals with Escherichia coli C600rif/pIB55-1. The assay can be described thus: MIC determination, CHL resistant E. coli strains. Format: cell-based.
Text: as §2, §3

Assay [3] relates to Escherichia coli C600recA naI. The assay can be described thus: MIC determination, CHL resistant E. coli strains. Format: cell-based. To be noted: C600RECANAI.
Text: as §2, §3

For a further assay, the system named is A549. The assay can be described thus: MTT assay growth inhibition. Format: cell-based, human. To be noted: Homo sapiens, A549; MTT, 72 h; read-out: 50% growth inhibition concentration (GI50). As for the experimental part: as §1
Another assay concerns Listeria monocytogenes. Description: MIC determination, broth microdilution. Format: cell-based.
Text: as §2
(§4) S. aureus was grown in Bacto Tryptic Soy Broth, L. monocytogenes in Brain Heart Infusion Broth, and E. coli in LB. Bacterial cells were grown at 30 °C or 37 °C in the appropriate medium at a 140 rpm shaking frequency.
as §3

The test system of another assay is Staphylococcus aureus. Description: MIC determination, broth microdilution. The class given is cell-based.
Text: as §2, §4, §3

In another assay the test system is Bacillus subtilis. Description: MIC determination, broth microdilution. The class given is cell-based.
Text: as §2, §3

A further assay concerns Mycobacterium smegmatis. The assay can be described thus: MIC determination, broth microdilution. Format: cell-based. To be noted: Mycolicibacterium smegmatis.
Text: as §2, §3

A further assay has as its system E. coli ∆tolC. The assay can be described thus: MIC determination, broth microdilution. The class given is cell-based. To be noted: Escherichia coli. As for the experimental part: (§5) E. coli ∆tolC CHL-resistant strain harboring plasmid encoding for chloramphenicol acetyltransferase (cat) (pCA24N-LacZ) and the control E. coli ∆tolC strain was used to evaluate the inhibitory effect of the compounds. CHL-resistant strains of B. subtilis pHT01-cat and B. subtilis pHT01-cfr were prepared by means of a transformation of a B. subtilis 168 strain with plasmids harboring the cat and cfr genes (chloramphenicol-florfenicol resistance) gene. The cfr gene encodes for the methyltransferase, which catalyzes the methylation of […] in the 23S rRNA and causes resistance to a variety of ribosome-targeting antibiotics that bind in the A site of the bacterial ribosome.
(§6) A standard laboratory strain of E. coli JW5503, with the deletion of the tolC gene, referred to here as the ∆tolC strain, was used to obtain the ∆tolC pCA24N-LacZ strain by means of transformation with the plasmid pCA24N-LacZ-harboring chloramphenicol acetyltransferase (cat) gene.
as §3

The next assay relates to E. coli ∆tolC-CAT. Description: MIC determination, broth microdilution. The class given is cell-based. To be noted: Escherichia coli. As for the experimental part: as §5, §6, §3
Another assay concerns B. subtilis pHT01-cfr. The assay can be described thus: MIC determination, broth microdilution. The class given is cell-based. To be noted: Bacillus subtilis, PHT01CFR. As for the experimental part: as §5
(§7) A standard laboratory strain of B. subtilis 168 was used to obtain the CHL-resistant strains, B. subtilis pHT01-CAT and B. subtilis pHT01-cfr, by means of transformation with the corresponding plasmids. Competent cell preparation and transformation procedures were conducted, as reported in [74, 75]. The desired colonies were selected at 10 µg/mL of CHL for B. subtilis pHT01 and 5 µg/mL or 3.2 µg/mL of CHL for B. subtilis pHT01-cfr.
as §3

The next assay concerns B. subtilis pHT01-cat. The assay can be described thus: MIC determination, broth microdilution. The class given is cell-based. To be noted: Bacillus subtilis, PHT01CAT. As for the experimental part:
as §5, §7, §3

The subject of assay [4] is E. coli BW25113 ΔtolC pDualrep2 reporter strain. Description: pDualrep2 double fluorescent reporter assay on agar plate. Format: cell-based. To be noted: for inhibition of cell growth (inhibition zone) of the reporter strain: 10 mM, 1.5 μL spotted on agar lawn; for induction of reporters (Katushka2S: ribosome stalling; RFP: DNA damage): compound spotted on agar lawn, overnight 37 °C. The text has this:
Next, we tested the effects of CAM-C10-TPP and CAM-C14-TPP in bacterial cells using an E. coli ∆tolC-based reporter system, which is designed to screen inhibitors targeting either protein synthesis or DNA replication. In this reporter system, the gene of the far-red fluorescent protein, katushka2S, is inserted downstream of the genetically modified tryptophan attenuator, making it possible to express Katushka2S only upon exposure to ribosome-stalling compounds (Figure 2B, CHL and ERY, red pseudocolor rings).
Reporter strain […] [71] ΔtolC (BW25113) pDualrep2 was used, as previously described. The tested antibiotics, CAM-C10-TPP (10 mM, 1.5 μL), CAM-C14-TPP (10 mM, 1.5 μL), C10-TPP (10 mM, 1.5 μL), C14-TPP (10 mM, 1.5 μL), CAM (10 mM, 1.5 μL), CAM-Ac (10 mM, 1.5 μL), chloramphenicol (CHL, 2 mM, 1 μL), erythromycin (Ery, 7 mM, 1 μL), and levofloxacin (Lev, 70 nM, 1 μL), were applied to an agar plate that already contained a lawn of the reporter strain. After being incubated overnight at 37 °C, the plate was scanned by ChemiDoc (Bio-Rad) in the modes, “Cy3-blot” for RFP and “Cy5-blot” for Katushka2S.

With `CCCCCCCCCC[P+](c1ccccc1)(c1ccccc1)c1ccccc1` [C10-TPP, decyl(triphenyl)phosphonium bromide], the GI50 in the assay on HEK293T was 80 ± 10 nM; with MCF7, 210 ± 30 nM; in the assay with VA13 it was 270 ± 50 nM; in the assay on A549, 70 ± 10 nM. Moreover, the MIC was determined as 93 µM in assay [1]; 110 µM against Escherichia coli J53rif; 67 µM in assay [2]; 136 µM in [3]; 5 µM in the assay with Listeria monocytogenes; 2 µM in the assay with Staphylococcus aureus. Also, the MIC is 2 µM in the assay with Bacillus subtilis; less than 2 µM in the assay on Mycobacterium smegmatis; 3 µM against E. coli ∆tolC; 3 µM in the assay with E. coli ∆tolC-CAT; 0.8 µM in the assay on B. subtilis pHT01-cfr; 1.6 µM in the assay on B. subtilis pHT01-cat. Moreover, the “inhibition of cell growth (inhibition zone) of the reporter strain” value in [4] is given as “inhibit bacterial cell growth”. Also, in assay [4], the “induction of reporters (Katushka2S: ribosome stalling; RFP: DNA damage)” value (“induction of reporters” for short) is “do not induce either of the two reporters”.

Turning to `CCCCCCCCCCCCCC[P+](c1ccccc1)(c1ccccc1)c1ccccc1` [C14-TPP, tetradecyl(triphenyl)phosphonium bromide], the GI50 with HEK293T was determined as 30 ± 20 nM; in the assay with MCF7, 20 ± 10 nM; in the assay with VA13 it was 70 ± 50 nM; in the assay on A549, 25 ± 9 nM. For the same molecule, the MIC in the assay with Listeria monocytogenes was 2 µM; in the assay on Staphylococcus aureus, 1.6 µM; against Bacillus subtilis, 8 µM; in the assay with Mycobacterium smegmatis, 4 µM; with E. coli ∆tolC, 1.6 µM; against E. coli ∆tolC-CAT, 6 µM. Moreover, the MIC was 0.8 µM in the assay with B. subtilis pHT01-cfr and 1.6 µM against B. subtilis pHT01-cat. For the same molecule, the “inhibition of cell growth (inhibition zone) of the reporter strain” value in assay [4] was “inhibit bacterial cell growth”. Moreover, in assay [4], the “induction of reporters” value is “do not induce either of the two reporters”.

Take `CC(=O)N[C@H](CO)[C@H](O)c1ccc([N+](=O)[O-])cc1` [CAM-Ac, N-acetyl-chloramphenicol amine]: in [4], the “induction of reporters” value is recorded as “neither the induction of either of the two reporters”.

Regarding `COc1cccc2c1C(=O)c1c(O)c3c(c(O)c1C2=O)C[C@@](O)(C(=O)CO)C[C@@H]3O[C@H]1C[C@H](N)[C@H](O)[C@H](C)O1` [Doxorubicin, doxorubicin], the GI50 with HEK293T came out at 7 ± 1 nM; in the assay with MCF7, 40 ± 10 nM; in the assay on VA13 it was 180 ± 40 nM; in the assay on A549 it was 40 ± 10 nM.

Regarding `CC[C@H]1OC(=O)[C@H](C)[C@@H](O[C@H]2C[C@@](C)(OC)[C@@H](O)[C@H](C)O2)[C@H](C)[C@@H](O[C@@H]2O[C@H](C)C[C@H](N(C)C)[C@H]2O)[C@](C)(O)C[C@@H](C)C(=O)[C@H](C)[C@@H](O)[C@]1(C)O` [ERY, erythromycin], the “induction of reporters” value in [4] is recorded as “red pseudocolor rings are observed due to the expression of the fluorescent protein, Katushka2S (but not RFP)”.

Regarding `C[C@H]1COc2c(N3CCN(C)CC3)c(F)cc3c(=O)c(C(=O)O)cn1c23` [LEV, levofloxacin], the “induction of reporters” value in assay [4] is recorded as “green pseudocolored rings”.
